ChEMBL document CHEMBL3045398, “Fungicidal activities of cyflufenamid against various plant-pathogenic fungi” (J Pestic Sci, 2006)
Calls of active or inactive are those of the source. The calls are words filed in the database; no cut-off is given here.

Experiments:
[1] = test system: Blumeria graminis f. sp. tritici; test: Fungicidal activity against Blumeria graminis f. sp. tritici on wheat leaves assessed as rate of appressorium formation measured at 12.5 ppm after 12 hr (reference value: 22.3 +/- 10.2%); format: functional
[2] = test system: Blumeria graminis f. sp. tritici; test: Fungicidal activity against Blumeria graminis f. sp. tritici on wheat leaves assessed as spore formation measured at 0.8 ppm; format: functional
[3] = test system: Cladosporium cucumerinum; test: Fungicidal activity against Cladosporium cucumerinum assessed as inhibition of mycelial growth measured after 3 to 20 days by agar dilution method; format: functional, organism-based
[4] = test system: Blumeria graminis f. sp. tritici; test: Fungicidal activity against Blumeria graminis f. sp. tritici on wheat leaves assessed as rate of appressorium formation measured at 0.8 ppm after 76 hr; format: functional
[5] = test system: Blumeria graminis f. sp. tritici; test: Fungicidal activity against Blumeria graminis f. sp. tritici on wheat (Triticum aestivum, cv. Chihoku) assessed as powdery mildew disease control at 0.8 ppm measured after 5 to 10 days; format: functional
[6] = test system: Blumeria graminis f. sp. tritici; test: Fungicidal activity against Blumeria graminis f. sp. tritici on wheat leaves assessed as rate of appressorium formation measured at 12.5 ppm after 24 hr (reference value: 89.7 +/- 4%); format: functional
[7] = test system: Blumeria graminis f. sp. tritici; test: Fungicidal activity against Blumeria graminis f. sp. tritici on wheat leaves assessed as rate of appressorium formation measured at 0.2 ppm after 168 hr; format: functional
[8] = test system: Blumeria graminis f. sp. tritici; test: Fungicidal activity against Blumeria graminis f. sp. tritici on wheat (Triticum aestivum, cv. Chihoku) assessed as powdery mildew disease control at 0.05 ppm measured after 5 to 10 days; format: functional
[9] = test system: Blumeria graminis f. sp. tritici; test: Fungicidal activity against Blumeria graminis f. sp. tritici on wheat leaves assessed as rate of appressorium formation measured at 12.5 ppm after 6 hr (reference value: 3.5 +/- 2.5%); format: functional
[10] = test system: Pythium aphanidermatum; test: Fungicidal activity against Pythium aphanidermatum assessed as inhibition of mycelial growth measured after 3 to 20 days by agar dilution method; format: functional, organism-based
[11] = test system: Blumeria graminis f. sp. tritici; test: Fungicidal activity against Blumeria graminis f. sp. tritici on wheat (Triticum aestivum, cv. Chihoku) assessed as powdery mildew disease control at 0.01 ppm measured after 5 to 10 days; format: functional
[12] = test system: Phytophthora infestans; test: Fungicidal activity against Phytophthora infestans assessed as inhibition of mycelial growth measured after 3 to 20 days by agar dilution method; format: functional, organism-based
[13] = test system: Phytophthora infestans; test: Fungicidal activity against Phytophthora infestans on tomato (Lycopersicon esculentum, cv. Regina) assessed as late blight disease control at 200 ppm measured after 5 to 10 days; format: functional
[14] = test system: Monilinia fructicola; test: Fungicidal activity against Monilinia fructicola assessed as inhibition of mycelial growth measured after 3 to 20 days by agar dilution method; format: functional, organism-based
[15] = test system: Blumeria graminis f. sp. tritici; test: Fungicidal activity against Blumeria graminis f. sp. tritici on wheat (Triticum aestivum, cv. Chihoku) assessed as powdery mildew disease control at 3.1 ppm measured after 5 to 10 days; format: functional
[16] = test system: Blumeria graminis f. sp. tritici; test: Fungicidal activity against Blumeria graminis f. sp. tritici on wheat (Triticum aestivum, cv. Chihoku) assessed as powdery mildew disease control at 0.2 ppm measured after 5 to 10 days; format: functional
[17] = test system: Podosphaera leucotricha; test: Fungicidal activity against Podosphaera leucotricha in apple assessed as powdery mildew disease control measured after 7 to 10 days by pot test; format: functional
[18] = test system: Cytospora ceratosperma; test: Fungicidal activity against Valsa ceratosperma assessed as inhibition of mycelial growth measured after 3 to 20 days by agar dilution method; format: functional, organism-based
[19] = test system: Monilinia fructicola; test: Fungicidal activity against Monilinia fructicola assessed as number and shape of mitochondria measured by Transmission electron microscopy relative to untreated control; format: functional, organism-based
[20] = test system: Pyricularia oryzae; test: Fungicidal activity against Magnaporthe oryzae assessed as inhibition of mycelial growth measured after 3 to 20 days by agar dilution method; format: functional, organism-based
[21] = test system: Bipolaris oryzae; test: Fungicidal activity against Bipolaris oryzae assessed as inhibition of mycelial growth measured after 3 to 20 days by agar dilution method; format: functional, organism-based
[22] = test system: Trichoderma viride; test: Fungicidal activity against Hypocrea rufa assessed as inhibition of mycelial growth measured after 3 to 20 days by agar dilution method; format: functional, organism-based
[23] = test system: Verticillium dahliae; test: Fungicidal activity against Verticillium dahliae assessed as inhibition of mycelial growth measured after 3 to 20 days by agar dilution method; format: functional, organism-based
[24] = test system: Colletotrichum lagenaria; test: Fungicidal activity against Colletotrichum lagenaria assessed as inhibition of mycelial growth measured after 3 to 20 days by agar dilution method; format: functional, organism-based
[25] = test system: Venturia inaequalis; test: Fungicidal activity against Venturia inaequalis on apple (Malus pumila var. domestica, cv. Rall's Janett) assessed as scab control at 200 ppm measured after 5 to 10 days; format: functional
[26] = test system: Oculimacula yallundae; test: Fungicidal activity against Oculimacula yallundae assessed as inhibition of mycelial growth measured after 3 to 20 days by agar dilution method; format: functional, organism-based
[27] = test system: Blumeria graminis f. sp. tritici; test: Fungicidal activity against Blumeria graminis f. sp. tritici on wheat leaves assessed as rate of appressorium formation measured at 12.5 ppm after 3 hr (reference value: 1.7 +/- 1.4%); format: functional
[28] = test system: Discula theae-sinensis; test: Fungicidal activity against Discula theae-sinensis assessed as inhibition of mycelial growth measured after 3 to 20 days by agar dilution method; format: functional, organism-based, Sinodiscula theae-sinensis
[29] = test system: Microdochium nivale; test: Fungicidal activity against Microdochium nivale assessed as inhibition of mycelial growth measured after 3 to 20 days by agar dilution method; format: functional, organism-based
[30] = test system: Blumeria graminis f. sp. tritici; test: Fungicidal activity against Blumeria graminis f. sp. tritici on wheat leaves assessed as spore formation measured at 0.2 ppm; format: functional
[31] = test system: Leveillula taurica; test: Fungicidal activity against Leveillula taurica in sweet pepper assessed as powdery mildew disease control measured after 7 to 10 days by pot test; format: functional; conditions: Phyllactinia taurica
[32] = test system: Fusarium oxysporum; test: Fungicidal activity against Fusarium oxysporum assessed as inhibition of mycelial growth measured after 3 to 20 days by agar dilution method; format: functional, organism-based
[33] = test system: Helicobasidium mompa; test: Fungicidal activity against Helicobasidium mompa assessed as inhibition of mycelial growth measured after 3 to 20 days by agar dilution method; format: functional, organism-based
[34] = test system: Erysiphe necator; test: Fungicidal activity against Erysiphe necator in grape assessed as powdery mildew disease control measured after 7 to 10 days by pot test; format: functional
[35] = test system: Blumeria graminis f. sp. tritici; test: Fungicidal activity against Blumeria graminis f. sp. tritici on wheat leaves assessed as spore formation measured at 3.1 ppm; format: functional
[36] = test system: Rhizoctonia solani; test: Fungicidal activity against Rhizoctonia solani assessed as inhibition of mycelial growth measured after 3 to 20 days by agar dilution method; format: functional, organism-based
[37] = test system: Botrytis squamosa; test: Fungicidal activity against Botryotinia squamosa assessed as inhibition of mycelial growth measured after 3 to 20 days by agar dilution method; format: functional, organism-based
[38] = test system: Podosphaera aphanis; test: Fungicidal activity against Podosphaera aphanis var. aphanis in strawberry assessed as powdery mildew disease control measured after 7 to 10 days by pot test; format: functional
[39] = test system: Blumeria graminis f. sp. tritici; test: Fungicidal activity against Blumeria graminis f. sp. tritici on wheat leaves assessed as colony formation measured at 0.2 ppm; format: functional
[40] = test system: Monilinia fructicola; test: Fungicidal activity against Monilinia fructicola assessed as large septa measured by Transmission electron microscopy; format: functional, organism-based
[41] = test system: Botrytis cinerea; test: Fungicidal activity against Botryotinia fuckeliana on kidney bean (Phaseolus vulgaris, cv. Nagauzura) assessed as grey mold disease control at 200 ppm measured after 5 to 10 days; format: functional
[42] = test system: Sclerotinia sclerotiorum; test: Fungicidal activity against Sclerotinia sclerotiorum assessed as inhibition of mycelial growth measured after 3 to 20 days by agar dilution method; format: functional, organism-based
[43] = test system: Cercospora beticola; test: Fungicidal activity against Cercospora beticola assessed as inhibition of mycelial growth measured after 3 to 20 days by agar dilution method; format: functional, organism-based

O=C(Cc1ccccc1)N/C(=N\OCC1CC1)c1c(C(F)(F)F)ccc(F)c1F [CYFLUFENAMID]
Activity [1]: 28.1%
inhibition at 0.8 ppm [2]: 100%
EC50 [3]: > 100 ppm
inhibition at 0.8 ppm [4]: 96.4%
Efficacy [5]: 100%
Activity [6]: 87.9%
inhibition at 0.2 ppm [7]: 80.1%
Efficacy [8]: 30%
Activity [9]: 0.4%
EC50 [10]: > 100 ppm
Efficacy [11]: 6%
EC50 [12]: > 100 ppm
Efficacy [13]: 0%
EC50 [14]: 0.01 ppm
Efficacy [15]: 100%
Efficacy [16]: 66%
MIC [17]: < 1.6 µg/mL
EC50 [18]: 8 ppm
Activity [19]: inactive
EC50 [20]: 3 ppm
EC50 [21]: > 100 ppm
EC50 [22]: > 100 ppm
EC50 [23]: > 100 ppm
EC50 [24]: > 100 ppm
Efficacy [25]: 0%
EC50 [26]: > 100 ppm
Activity [27]: 0.3%
EC50 [28]: > 100 ppm
EC50 [29]: 0.3 ppm
inhibition at 0.2 ppm [30]: 97%
MIC [31]: < 0.8 µg/mL
EC50 [32]: > 100 ppm
EC50 [33]: > 100 ppm
MIC [34]: < 1.6 µg/mL
inhibition at 3.1 ppm [35]: 100%
EC50 [36]: > 100 ppm
EC50 [37]: > 100 ppm
MIC [38]: < 0.8 µg/mL
inhibition at 0.2 ppm [39]: 81.2%
Activity [40]: Active
Efficacy [41]: 0%
EC50 [42]: 1 ppm
EC50 [43]: 0.3 ppm
